Measurements as given in patent publication US4570005A, “Process for the preparation of 2-arylpropyl ether or thioether derivatives” (priority 1980, dated 1986).
Read-outs that look alike come from different tables or passages of the source.

Key:
[1] = Test 9: Toxicity Test (acute oral toxicity, mice); conditions: mouse, in vivo, po
Method: A predetermined amount of a solution or suspension of a test compound in corn oil was orally administered to male mice having a body weight of 19 to 23 g (0.2 ml per 10 g of the body weight). After 7 days, the number of killed mice was counted and the influences on the mice were examined.

[2] = tested on: sensitive green rice leafhopper (collected at Chigasaki); assay: whole plant or invertebrate; assay type: in vivo; conditions: Nephotettix cincticeps, read-out: Mortality (%), Green Rice Leafhopper Collected at Chigasaki
Method: (§1) To a mixture of 20 parts of the compound of the present invention and 20 parts of Sorpol SM-200 (registered tradename for the product supplied by Toho Chemical Industrial Co., Ltd.) was added 60 parts of xylol, and the mixture was suffciently blended. The obtained emulsifiable concentrate was diluted at a predetermined concentration with distilled water, and the obtained dilution was used.
(§2) Seedlings (having 2 to 3 leaves) of paddy rice were hydroponically cultured in a pot having a diameter of 5 cm. A chemical dilution having a concentration of 100 or 20 ppm, prepared in the same manner as described in Test 1, was applied with a sprayer at a rate of 3 ml per pot. The treated seedlings were air-dried and covered with a metal net cylinder, and female adults of resistant green rice leafhopper (collected at Nakagawara) and sensitive green rice leafhopper (collected at Chigasaki) were set, respectively, free in the pot at a density of 10 adults per pot. After 24 hours, the numbers of killed and living adults were counted and the mortality was calculated. The test was made on three pots and the average value was calculated.

[3] = tested on: resistant green rice leafhopper (collected at Nakagawara); assay: Test 3: Effect on Resistant Green Rice Leafhopper (collected at Nakagawara); assay type: in vivo, Nephotettix cincticeps Uhler (Green rice leafhopper); conditions: Nephotettix cincticeps, 24 h, read-out: Mortality (%), Green Rice Leafhopper Collected at Nakagawara
Method: as §1, §2

[4] = sensitive female adults, 24 hours
[5] = 100 ppm, sensitive female adults, 24 hours

SMILES | LD50 at 168 h [1] [mg/kg] | mortality at 20 ppm [2, 4] [%] | mortality at 100 ppm [2, 5] [%] | mortality at 20 ppm [3] [%] | mortality at 100 ppm [3] [%] | mortality at 100 ppm ([2]; 24 h) [%]
CC(C)(COCc1cccc(Oc2cccc(Cl)c2)c1)c1ccc(Cl)cc1 [Compound 10, 3-(3-Chlorophenoxy)benzyl 2-(4-chlorophenyl)-2-methylpropyl ether] | > 500 | 100 | 100 | 100 | 100 | –
Cc1cccc(C(C)(C)COCc2cccc(Oc3ccc(F)cc3)c2)c1 [Compound 36, 3-(4-Fluorophenoxy)benzyl 2-(3-methylphenyl)-2-methylpropyl ether] | > 500 | 70 | 95 | 90 | 100 | –
COc1ccc(Oc2cccc(COCC(C)(C)c3ccc(C)cc3)c2)cc1 [Compound 44, 3-(4-methoxyphenoxy)benzyl 2-(4-methylphenyl)-2-methylpropylether] | > 500 | 80 | 100 | 95 | 100 | –
Cc1cccc(Oc2cccc(COCC(C)(C)c3ccc(Cl)cc3)c2)c1 [Compound 26, 3-(3-Methylphenoxy)benzyl 2-(4-chlorophenyl)-2-methylpropyl ether] | > 500 | 60 | 100 | 85 | 100 | –
C=C(Cl)c1ccc(C(C)(C)COCc2cccc(Oc3ccccc3)c2)cc1 [Compound 102, 3-Phenoxybenzyl 2-[4-(1-chlorovinyl)phenyl]-2-methylpropyl ether] | > 500 | – | – | – | – | –
CC=C(C)c1ccc(C(C)(C)COCc2cccc(Oc3ccccc3)c2)cc1 [Compound 111, 3-Phenoxybenzyl 2-[4-(2-buten-2-yl)phenyl]-2-methylpropyl ether] | > 500 | – | – | – | – | –
CC(C)(COCc1cccc(Oc2ccc(F)cc2)c1)c1ccccc1 [Compound 28, 3-(4-Fluorophenoxy)benzyl 2-phenyl-2-methylpropyl ether] | > 500 | 75 | 100 | 90 | 100 | –
CC(C)(COCc1cccc(Oc2ccccc2)c1)c1ccc(OC2CCCCC2)cc1 [Compound 72, 3-Phenoxybenzyl 2-(4-cyclohexyloxyphenyl)-2-methylpropyl ether] | > 500 | 65 | 100 | 80 | 100 | –
COc1ccc(C(C)(C)COCc2cccc(Oc3ccccc3)c2)cc1OC [Compound 88, 3-Phenoxybenzyl 2-(3,4-dimethoxyphenyl)-2-methylpropyl ether] | > 500 | 60 | 100 | 80 | 100 | –
C=C(CC)c1ccc(C(C)(C)COCc2cccc(Oc3ccccc3)c2)cc1 [Compound 110, 3-Phenoxybenzyl 2-[4-(1-buten-2-yl)phenyl]-2-methylpropyl ether] | > 500 | – | – | – | – | –
CC(C)(COCc1cccc(Oc2ccccc2)c1)c1ccc(-c2ccccc2)cc1 [Compound 68, 3-Phenoxybenzyl 2-(4-biphenyl)-2-methylpropyl ether] | > 500 | 100 | 100 | 100 | 100 | –
COc1ccc(C(C)(C)COCc2cccc(Oc3ccc(F)cc3)c2)cc1 [Compound 32, 3-(4-Fluorophenoxy)benzyl 2-(4-methoxyphenyl)-2-methylpropyl ether] | > 500 | 100 | 100 | 100 | 100 | –
CC(C)c1ccc(C(C)(C)COCc2cccc(Oc3ccccc3)c2)cc1 [Compound 63, 3-Phenoxybenzyl 2-(4-isopropylphenyl)-2-methylpropyl ether] | > 500 | 95 | 100 | 100 | 100 | –
COCc1ccc(C(C)(C)COCc2cccc(Oc3ccccc3)c2)cc1 [Compound 80, 3-Phenoxybenzyl 2-(4-methoxymethylphenyl)-2-methylpropyl ether] | > 500 | – | – | – | – | –
COc1ccc(Oc2cccc(COCC(C)(C)c3ccc(OC)cc3)c2)cc1 [Compound 27, 3-(4-Methoxyphenoxy)benzyl 2-(4-methoxyphenyl)-2-methylpropyl ether] | > 500 | 50 | 100 | 70 | 100 | –
COc1ccc(Oc2cccc(COCC(C)(C)c3ccc(Cl)cc3)c2)cc1 [Compound 34, 3-(4-Methoxyphenoxy)benzyl 2-(4-chlorophenyl)-2-methylpropyl ether] | > 500 | 90 | 100 | 100 | 100 | –
COc1ccc(Oc2cccc(COCC(C)(C)c3ccc(Br)cc3)c2)cc1 [Compound 40, 3-(4-Methoxyphenoxy)benzyl 2-(4-bromophenyl)-2-methylpropyl ether] | > 500 | 50 | 100 | 70 | 100 | –
CC(C)=Cc1ccc(C(C)(C)COCc2cccc(Oc3ccccc3)c2)cc1 [Compound 91, 3-Phenoxybenzyl 2-[4-(2-methyl-1-propenyl)phenyl]-2-methylpropyl ether] | > 500 | 100 | 100 | 100 | 100 | –
CC(C)(COCc1cccc(Oc2ccc(Br)cc2)c1)c1cccc(C(F)(F)F)c1 [Compound 42, 3-(4-Bromophenoxy)benzyl 2-(3-trifluoromethylphenyl)-2-methylpropyl ether] | > 500 | 95 | 100 | 100 | 100 | –
CC(C)c1ccc(C(C)(C)COCc2cccc(Oc3ccc(F)cc3)c2)cc1 [Compound 77, 3-(4-Fluorophenoxy)benzyl 2-(4-isopropylphenyl)-2-methylpropyl ether] | > 500 | 70 | 100 | 85 | 100 | –
C=C(C)c1ccc(C(C)(C)COCc2cccc(Oc3ccccc3)c2)cc1 [Compound 87, 3-Phenoxybenzyl 2-(4-isopropenylphenyl)-2-methylpropyl ether] | > 500 | – | – | – | – | –
CNC(=O)Oc1cccc(C)c1 [Comparative Compound (e), m-tolyl-N-methylcarbamate, reference compound] | 220 | – | – | – | – | 80
CC(C)(COCc1cccc(Oc2ccccc2)c1)c1ccc(C(=O)OCC(F)(F)F)cc1 [Compound 106, 3-Phenoxybenzyl 2-[4-(2,2,2-trifluoroethoxycarbonyl)-phenyl]-2-methylpropylether] | > 500 | – | – | – | – | –
CCOCCOc1ccc(C(C)(C)COCc2cccc(Oc3ccccc3)c2)cc1 [Compound 89, 3-Phenoxybenzyl 2-[4-(2-ethoxyethoxy)phenyl]-2-methylpropyl ether] | > 500 | – | – | – | – | –
